Measurements taken from article PMC3108181 (Biochimica et biophysica acta, 2011).
Where “and” joins values, the source holds several entries; their conditions need not be identical. Equal entries are not always repeated. Entries after “also recorded” stand apart in the source; their conditions may differ. Where two headings read alike, the source gives them in different places. Each block holds one compound with its values, some of them ahead of it.

How the values were obtained:
[1] = molecular target: Complex II: succinate:ubiquinone oxidoreductase (Rattus norvegicus, UniProt P21913+Q641Z9+Q6PCT8+Q920L2); assay: Complex II activity; format: biochemical; conditions: for Effect on complex II activity: lysed rat brain mitochondria, 15 min pre-incubation at room temperature, malonate sensitive activity
[2] = system: Complex I: NADH:ubiquinone oxidoreductase; assay: Complex I activity in lysed rat brain mitochondria; format: biochemical; conditions: for Effect on complex I activity: lysed rat brain mitochondria, 30 min pre-incubation (same with no pre-incubation)
[3] = system: Complex II/III: succinate:cytochrome C-oxidoreductase; assay: Complex II/III activity in lysed rat brain mitochondria; format: biochemical
complex I = conditions: cited from earlier work
[4] = system: Complex I/III: NADH:cytochrome C-oxidoreductase; assay: Complex I/III activity in lysed rat brain mitochondria; format: biochemical
complex IV = conditions: cited from earlier work; for Inhibition of complex IV: 400 uM DA, 2 hrs of incubation
[5] = system: Complex IV: ferrocytochrome C oxidase:oxygen oxidoreductase; assay: Complex IV activity in lysed rat brain mitochondria; format: biochemical; conditions: for Effect on complex IV activity: lysed rat brain mitochondria, 15 min pre-incubation at room temperature; for Prevention of the complex IV inhibition observed with DAH: (2U) SOD plus (2U) Cat, 10 uM pargyline and 10 uM clorgyline, DTT 50 uM, data not shown
[6] = molecular target: Complex III: ubiquinol: ferricytochrome C oxidoreductase; assay: Complex III activity in lysed rat brain mitochondria; format: biochemical; conditions: for Inhibition of complex III activity: myxothiazol (60uM) and antimycin A (0.002mg/ml) together, parallel control
[7] = system: NADH-Oxidase (complexes I, III and IV); assay: NADH-oxidase activity in lysed rat brain mitochondria; format: biochemical
[8] = read-out: Inhibition of complex II activity

Chain of Complex II: succinate:ubiquinone oxidoreductase (Q920L2 35-656): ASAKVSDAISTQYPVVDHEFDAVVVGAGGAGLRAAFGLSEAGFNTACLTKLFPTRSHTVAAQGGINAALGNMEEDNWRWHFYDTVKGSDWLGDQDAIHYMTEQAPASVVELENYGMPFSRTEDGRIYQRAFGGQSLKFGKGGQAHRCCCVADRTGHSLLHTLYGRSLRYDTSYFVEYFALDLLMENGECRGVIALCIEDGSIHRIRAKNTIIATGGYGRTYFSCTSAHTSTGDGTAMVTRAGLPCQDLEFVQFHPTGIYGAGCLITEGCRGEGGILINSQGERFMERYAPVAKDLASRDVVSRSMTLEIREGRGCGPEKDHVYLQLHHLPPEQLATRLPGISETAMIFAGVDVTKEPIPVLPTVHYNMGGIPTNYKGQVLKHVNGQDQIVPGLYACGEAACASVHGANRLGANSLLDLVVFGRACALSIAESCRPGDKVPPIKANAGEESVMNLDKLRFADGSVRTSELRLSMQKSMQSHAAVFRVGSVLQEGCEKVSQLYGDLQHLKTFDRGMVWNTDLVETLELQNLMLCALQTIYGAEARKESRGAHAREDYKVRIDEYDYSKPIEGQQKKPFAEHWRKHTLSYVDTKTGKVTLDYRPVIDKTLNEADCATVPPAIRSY
Chain of Complex II: succinate:ubiquinone oxidoreductase (P21913 31-282): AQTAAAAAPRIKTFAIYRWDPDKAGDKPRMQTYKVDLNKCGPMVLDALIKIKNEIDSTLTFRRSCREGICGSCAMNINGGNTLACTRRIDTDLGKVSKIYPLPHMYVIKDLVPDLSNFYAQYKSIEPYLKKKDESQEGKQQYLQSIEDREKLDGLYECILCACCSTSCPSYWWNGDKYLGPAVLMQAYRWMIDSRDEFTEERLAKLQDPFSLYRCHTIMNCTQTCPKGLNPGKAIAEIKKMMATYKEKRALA
Chain of Complex II: succinate:ubiquinone oxidoreductase (Q641Z9 1-169): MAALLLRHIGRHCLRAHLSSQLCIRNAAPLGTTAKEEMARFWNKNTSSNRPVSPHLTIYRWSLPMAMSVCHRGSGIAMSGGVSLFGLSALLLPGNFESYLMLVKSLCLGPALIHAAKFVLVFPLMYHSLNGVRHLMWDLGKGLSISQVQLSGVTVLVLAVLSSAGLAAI
Chain of Complex II: succinate:ubiquinone oxidoreductase (Q6PCT8 57-159): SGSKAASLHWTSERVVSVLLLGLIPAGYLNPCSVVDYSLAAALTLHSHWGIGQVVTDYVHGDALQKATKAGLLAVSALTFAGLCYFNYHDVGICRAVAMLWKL

Compound: NCCc1ccc(O)c(O)c1 [DAH, dopamine]
Effect on complex II activity [1]: Significantly inhibited at 500 uM and 1mM | inhibition at 500 µM [1, 8]: 32.7 ± 2% | inhibition at 1000 µM [1, 8]: 41.9 ± 5.5% | Effect on complex I activity [2]: not affected; also recorded: No effect at 1mM | Effect on complex II/III activity [3]: inhibited complex II/III activity to a similar extent as was observed with complex II alone | IC50 (complex I; read-out: IC50 for inhibition of complex I): 8 to 12 µM and 8.12 µM | Complex I/III activity, mean % of control ([4]; 200 uM DA plus tyrosinase (25U) alone (DAQ), ± sem): 7 % of control | Inhibition of complex IV (complex IV; ref 29): 62.8% | Inhibition of complex IV (complex IV; ref 30): 57% | Effect on complex IV (complex IV; DA up to 1mM, 1 min incubation): no inhibition | Complex IV activity, % of control ([5]; 1 mM DAH, concluded to be an artifact (back reaction with oxidized cytochrome C)): 61 % of control | Effect on complex IV activity [5]: Inhibited at 1mM due to artifactual competing back reaction between oxidized cytochrome C and reduced dopamine

Compound: O=C(O)Cc1ccc(O)c(O)c1 [DOPAC-H, 3,4-dihydroxyphenylacetic acid]
Effect on complex II activity [1]: not significantly affected; also recorded: not attenuated; also recorded: No effect at 1mM | Effect on complex I activity [2]: not affected; also recorded: No effect at 1mM | Effect on complex II/III activity ([3]; lysed rat brain mitochondria, 15 min exposure at room temperature, inhibitor corrected rates): did not significantly inhibit | Effect on complex IV activity (complex IV; 400 uM DOPAC, rat brain mitochondria, 2 hr pre-incubation): only marginal effects | Effect on complex IV activity [5]: not affected; also recorded: No effect at 1mM

Compound: O=C(O)CC1=CC(=O)C(=O)C=C1 [DOPAC-Q]
Effect on complex II activity [1]: did not attenuate; also recorded: No effect up to 400 uM | IC50 ([6]; read-out: IC50 for inhibition of complex III activity, 15 min pre-incubation at room temperature, mean ± SEM): 110 µM | Effect on complex IV activity [5]: did not inhibit; also recorded: No effect up to 400 uM

Compound: O[C@@H](CS)[C@@H](O)CS [DTT, dithioreitol, reference compound]
Prevention of the complex IV inhibition observed with DAH ([5]; 1 mM DAH): not prevented

Compound: CCCCCC[C@H]1C(=O)O[C@H](C)[C@H](NC(=O)c2cccc(NC=O)c2O)C(=O)O[C@@H](C)[C@@H]1OC(=O)CC(C)C [antimycin A]
Inhibition of complex III activity [6]: ≥ 95%

Prevention of the complex IV inhibition observed with DAH ([5]; 1 mM DAH): not prevented
Compound: C#CCN(C)CCCOc1ccc(Cl)cc1Cl [clorgyline, reference compound]

Compound: CC(=O)N(O)CCCCCNC(=O)CCC(=O)N(O)CCCCCNC(=O)CCC(=O)N(O)CCCCCN [desferoxamine, reference compound]
Attenuation of DA mediated inhibition of complex I activity (complex I): partially attenuated

Inhibition of complex II activity ([1]; malonate 10mM, parallel control): 90–95%
Compound: O=C(O)CC(=O)O [malonate, reference compound]

Compound: CO/C(=C/C(N)=O)[C@H](C)[C@H](/C=C/c1csc(-c2csc([C@@H](C)/C=C/C=C/C(C)C)n2)n1)OC [myxothiazol]
Inhibition of complex III activity [6]: ≥ 95%

Prevention of the complex IV inhibition observed with DAH ([5]; 1 mM DAH): not prevented
Compound: C#CCN(C)Cc1ccccc1 [pargyline, reference compound]

Compound: C=C(C)[C@H]1Cc2c(ccc3c2O[C@@H]2COc4cc(OC)c(OC)cc4[C@@H]2C3=O)O1 [rotenone, reference compound]
Inhibition of NADH-oxidase activity [7]: ≥ 90% | Inhibition of complex I/III activity [4]: ≥ 95%

Prevention of the complex IV inhibition observed with DAH ([5]; 1 mM DAH): not prevented
Compound: catalase
Prevention of DAQ mediated inhibition of complex I ([2]; 50 uM DAQ plus SOD [2U] and catalase [1U] together): did not prevent
